Paper PMC11079024, “Identification of a family of species-selective complex I inhibitors as potential anthelmintics” (Nature Communications, 2024)
Like-named read-outs stand apart in the source and are kept apart here.

Experiments:
L1 wild-type C. elegans [1] = assay: microbe, parasite or virus in culture; conditions: Caenorhabditis elegans, read-out: C. elegans KCN Survival Assay LC50, estimated from fitted dose-response curves; mean of at least two biological replicates
[2] = molecular target: B. taurus (heart) complex I (Bos taurus, UniProt P03887+P17694+P42026); assay: biochemical; assay type: biochemical; conditions: for IC50: B. taurus heart mitochondria, estimated from fitted dose-response curves, read-out: B. taurus Complex I IC50; for Log IC50 B. taurus complex I: log10 of IC50 in µM, B. taurus mitochondria
B. taurus (heart) complex I, sequence (P03887 whole entry): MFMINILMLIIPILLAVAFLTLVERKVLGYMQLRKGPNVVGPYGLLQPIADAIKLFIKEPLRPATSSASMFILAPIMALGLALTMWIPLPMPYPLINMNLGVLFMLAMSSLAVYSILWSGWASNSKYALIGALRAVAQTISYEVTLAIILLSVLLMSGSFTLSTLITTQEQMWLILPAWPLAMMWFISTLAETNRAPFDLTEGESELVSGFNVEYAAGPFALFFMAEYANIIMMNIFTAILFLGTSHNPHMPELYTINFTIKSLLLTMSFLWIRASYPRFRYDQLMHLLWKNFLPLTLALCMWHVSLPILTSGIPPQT
B. taurus (heart) complex I, sequence (P17694 34-463): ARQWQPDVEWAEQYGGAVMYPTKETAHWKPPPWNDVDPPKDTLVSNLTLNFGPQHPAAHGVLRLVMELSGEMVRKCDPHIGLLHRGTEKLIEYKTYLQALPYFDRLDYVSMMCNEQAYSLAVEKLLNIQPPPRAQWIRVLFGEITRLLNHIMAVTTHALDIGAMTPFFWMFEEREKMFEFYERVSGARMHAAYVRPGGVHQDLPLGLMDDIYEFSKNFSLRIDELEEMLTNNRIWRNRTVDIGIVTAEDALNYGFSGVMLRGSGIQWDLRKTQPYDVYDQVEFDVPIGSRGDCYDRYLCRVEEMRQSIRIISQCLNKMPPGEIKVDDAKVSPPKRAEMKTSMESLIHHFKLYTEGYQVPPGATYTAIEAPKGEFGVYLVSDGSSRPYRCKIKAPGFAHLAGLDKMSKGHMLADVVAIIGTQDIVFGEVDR
B. taurus (heart) complex I, sequence (P42026 38-216): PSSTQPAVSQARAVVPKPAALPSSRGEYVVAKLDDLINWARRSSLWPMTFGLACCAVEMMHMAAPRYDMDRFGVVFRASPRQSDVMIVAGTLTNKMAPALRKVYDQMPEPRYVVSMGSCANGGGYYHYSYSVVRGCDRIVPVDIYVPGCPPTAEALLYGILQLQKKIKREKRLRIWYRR
Summary of the method: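 Complex I activity followed as DCIP reduction (600 nm, 30 s reads, 15 min) with 80 μM NADH and 60 μM decylubiquinone in 25 mM KPi pH 7.5 containing 2 μM antimycin A and 2 mM KCN. Freeze-thawed mouse or bovine heart mitochondria at 0.2 mg/mL; initial-rate percent of solvent control, single-point 100 μM or dose-response.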

in vitro = conditions: human
[3] = test system: ben-1 mutant (ECA882) C. elegans; assay: microbe, parasite or virus in culture; conditions: Caenorhabditis elegans
Summary of the method: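 L1 larvae (~2 worms/μL in M9) in liquid NGM with 2-fold concentrated E. coli HB101, compound at 1% DMSO, 6 days at 20 °C shaking 165 rpm. Well images scored as summed worm-associated pixels, normalized to DMSO controls; relative viability averaged over at least three biological replicates.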

L1 wild-type C. elegans [4] = conditions: 50 μM compound; […]; hit = relative motility below 0.25 3 hours after removal of KCN
[5] = read-out: C. elegans (ben-1) Development & Viability Assay LC50
[6] = read-out: C. elegans ben-1 log10 LC50 (converted)

SMILES | LC50 (L1 wild-type C. elegans [1]) [µM] | IC50 [2] [µM] | Log IC50 B. taurus complex I [2] [µM] | CC50 at 2 days (in vitro; HEK293 Cell Viability Assay LC50, HEK293 cells, estimated from fitted dose-response curves, mean of at least two biological replicates) [µM] | LC50 [3, 5] [µM] | LC50 [3, 6] [µM] | Screen "Hit" (L1 wild-type C. elegans [4]) | CC50 at 2 days (in vitro) [µM] | LC50 ([3]; read-out: C. elegans ben-1 LC50) [µM]
c1ccc(CCCCCCCCCCc2nc3ccccc3[nH]2)cc1 [STL442376] | 5.61 | 3.32 | 0.52 | < 6.25 | 640 | 640 | Y (hits were identified as compounds that reduced relative motility below 0.25 (75% reduction)) | – | –
Cc1ccc2nc(C(C)c3ccc(CC(C)C)cc3)[nH]c2c1 (stereo not drawn) [STL482096] | 6.76 | 12.3 | 1.09 | – | > 1000 | > 500 | Y (hits were identified as compounds that reduced relative motility below 0.25 (75% reduction)) | < 12.5 | > 500
